Assay [1] has as its system Staphylococcus aureus. Kind of assay: Antibacterial activity against Staphylococcus aureus ATCC 6538P after 24 hr by broth microdilution method. In kind it is functional. Background: In broth dilution the organism is exposed to a series of concentrations in liquid medium.
Assay [2] has as its system Escherichia coli. The assay is described as follows: Antibacterial activity against Escherichia coli ATCC 8739 after 24 hr by broth microdilution method. In kind it is functional. As to conditions: ATCC 8739, 24 h.
In another assay the test system is Clostridium sporogenes. The assay is described as follows: Antibacterial activity against Clostridium sporogenes ATCC 19404 after 24 hr by broth microdilution method. Type of assay: functional. As to conditions: ATCC 19404, 24 h.
Assay [3] deals with Giardia intestinalis. Kind of assay: Antigiardial activity against Giardia intestinalis WB by trypan blue assay. In kind it is functional, organism-based. As to conditions: Giardia duodenalis.
Assay [4] deals with Candida albicans. The assay is described as follows: Antifungal activity against Candida albicans ATCC 10231 up to 1.25 mg/ml after 24 hr by broth microdilution method. In kind it is functional, organism-based.
Assay [5] relates to Candida albicans. Kind of assay: Antifungal activity against Candida albicans ATCC 10231 after 24 hr by broth microdilution method. In kind it is functional. As to conditions: ATCC 10231, 24 h.
In assay [6] the test system is Escherichia coli. The assay is described as follows: Antibacterial activity against Escherichia coli ATCC 8739 up to 1.25 mg/ml after 24 hr by broth microdilution method. In kind it is functional, organism-based.
Assay [7] has as its system Staphylococcus aureus. The assay is described as follows: Antibacterial activity against Staphylococcus aureus ATCC 6538P up to 1.25 mg/ml after 24 hr by broth microdilution method. Type of assay: functional, organism-based.
Assay [8] concerns Giardia intestinalis. Kind of assay: Ratio of metronidazole IC50 to compound IC50 for Giardia intestinalis. Type of assay: functional, Giardia duodenalis.

Each structure is given as a SMILES string. Converted amounts (≈) assume the structure as drawn. The source made the active and inactive calls. The calls are words filed in the database; no cut-off is given here.

As usually defined, the MIC is the lowest concentration found to suppress growth. Broadly, the IC50 is the concentration that gives 50% inhibition. A low value points to higher potency. Take `Cc1ncc([N+](=O)[O-])n1CC/N=C/c1ccncc1`: the MIC with Staphylococcus aureus [1] (read-out: MIC) was determined as 8460 µM; in the assay with Escherichia coli [2] (read-out: MIC) it was 8460 µM; against Clostridium sporogenes it was 376 µM (≈ 97.5 µg/mL). The same compound displayed an IC50 with Giardia intestinalis [3] of 11.2 µM. The outcome in the assay with Candida albicans [4] was inactive.
`Cc1ncc([N+](=O)[O-])n1CC/N=C/c1ccccc1Cl`: the MIC in the assay with Candida albicans [5] (read-out: MIC) was 170 µM; in the assay with Staphylococcus aureus [1] (read-out: MIC) it was 2670 µM; in the assay with Escherichia coli [2] (read-out: MIC), 2140 µM; with Clostridium sporogenes, 267 µM (≈ 78.2 µg/mL). This compound came in with an IC50 with Giardia intestinalis [3] of 7.29 µM.
In the case of `Cc1ncc([N+](=O)[O-])n1CC/N=C/c1cc(Cl)ccc1O`, the minimal inhibitory concentration (MIC) in the assay on Candida albicans [5] (read-out: MIC) is 440 µM; in the assay on Staphylococcus aureus [1] (read-out: MIC), 760 µM; in the assay with Escherichia coli [2] (read-out: MIC), 760 µM; with Clostridium sporogenes, 1010 µM (≈ 313 µg/mL). For the same compound, half-maximal inhibition in the assay on Giardia intestinalis [3] (IC50) required 4.32 µM.
`Clc1ccc(COC(Cn2ccnc2)c2ccc(Cl)cc2Cl)c(Cl)c1` (centres undefined) [MICONAZOLE] displayed a minimal inhibitory concentration (MIC) in the assay with Candida albicans [5] of 2.9 µg/mL.
On to `Cc1ccc(/C=N/CCn2c([N+](=O)[O-])cnc2C)cc1`, for which the minimum inhibitory concentration (MIC) was 1000 µM in the assay on Candida albicans [5] (read-out: MIC), 6890 µM with Staphylococcus aureus [1] (read-out: MIC), 4370 µM in the assay with Escherichia coli [2] (read-out: MIC) and 1440 µM (≈ 392 µg/mL) against Clostridium sporogenes. In the assay with Giardia intestinalis [3], the IC50 turned out to be 1.36 µM.
`Cc1ncc([N+](=O)[O-])n1CC/N=C/c1ccc([N+](=O)[O-])cc1`: the MIC in the assay with Candida albicans [5] (read-out: MIC) is 450 µM; with Clostridium sporogenes, 257 µM (≈ 77.9 µg/mL). The IC50 with Giardia intestinalis [3] was determined as 1.83 µM. The outcome in the assay on Escherichia coli [6] and in the assay on Staphylococcus aureus [7] was inactive.
In the case of `COc1ccc(/C=N/CCn2c([N+](=O)[O-])cnc2C)cc1`, the MIC in the assay with Candida albicans [5] (read-out: MIC) stood at 340 µM; in the assay on Staphylococcus aureus [1] (read-out: MIC), 4340 µM; in the assay on Escherichia coli [2] (read-out: MIC), 4340 µM; in the assay on Clostridium sporogenes, 203 µM (≈ 58.5 µg/mL). The same compound registered an IC50 in the assay with Giardia intestinalis [3] of 2.26 µM.
Take `Cc1ncc([N+](=O)[O-])n1CC/N=C/c1ccccc1O`: the MIC was found to be 360 µM with Candida albicans [5] (read-out: MIC), 2000 µM with Staphylococcus aureus [1] (read-out: MIC), 2240 µM in the assay on Escherichia coli [2] (read-out: MIC) and 285 µM (≈ 78.2 µg/mL) against Clostridium sporogenes. Also, the half-inhibitory concentration (IC50) in the assay on Giardia intestinalis [3] turned out to be 2.15 µM.
`Cc1ncc([N+](=O)[O-])n1CC/N=C/c1ccco1`: the values for the MIC in the assay with Staphylococcus aureus [1] (read-out: MIC), with Escherichia coli [2] (read-out: MIC) and in the assay on Clostridium sporogenes were 8850 µM, 8850 µM and 236 µM (≈ 58.6 µg/mL), respectively. This compound also returned a concentration for half-maximal inhibition (IC50) in the assay on Giardia intestinalis [3] of 2.78 µM. In the assay on Candida albicans [4], the result was inactive.
For the compound `CC1(C)S[C@@H]2[C@H](NC(=O)[C@H](N)c3ccccc3)C(=O)N2[C@H]1C(=O)O` [AMPICILLIN], the MIC against Staphylococcus aureus [1] was determined as 0.036 µg/mL; against Escherichia coli [2], 2.3 µg/mL.
Turning to `Cc1ncc([N+](=O)[O-])n1CC/N=C/c1ccc(F)cc1`, the MIC came to 1990 µM in the assay with Candida albicans [5] (read-out: MIC), 5090 µM in the assay with Staphylococcus aureus [1] (read-out: MIC), 4300 µM in the assay with Escherichia coli [2] (read-out: MIC) and 1130 µM (≈ 313 µg/mL) against Clostridium sporogenes. In the assay on Giardia intestinalis [3], this compound came in with a half-maximal inhibitory concentration (IC50) of 2.39 µM.
With `Cc1ncc([N+](=O)[O-])n1CCO` [METRONIDAZOLE], the MIC in the assay with Staphylococcus aureus [1] (read-out: MIC) worked out at 2050 µM; in the assay on Escherichia coli [2] (read-out: MIC) it was 5480 µM; against Clostridium sporogenes, 45.6 µM (≈ 7.8 µg/mL). This compound also registered an IC50 with Giardia intestinalis [3] of 3.74 µM. The result with Candida albicans [4] was inactive.
As to `Cc1ncc([N+](=O)[O-])n1CC/N=C/c1cccs1`, the MIC in the assay on Candida albicans [5] (read-out: MIC) came out at 2070 µM; with Staphylococcus aureus [1] (read-out: MIC), 7100 µM; in the assay with Escherichia coli [2] (read-out: MIC), 7100 µM; in the assay with Clostridium sporogenes, 369 µM (≈ 97.5 µg/mL). In addition, it took 0.83 µM to reach half-maximal inhibition with Giardia intestinalis [3] (IC50). The “Ratio IC50” value with Giardia intestinalis [8] is listed as 5.

(Values after ChEMBL document CHEMBL3044701, “Synthesis, characterization and biological activity of Schiff bases derived from metronidazole” (Med Chem Res, 2012).)
